Laboratory results from PubChem BioAssay AID2060904 (Molecular Pharmacology Branch, DTP, NCI, 2025).

Tested on: 349418-098-R-PDC complex spheroid viability
Assay: Anticancer human tumor 349418-098-R-PDC patient-derived lung adenocarcinoma cell line growth inhibition [RAS]
Settings: for IC50: curve of first compound; for viability, T/C: stronger effect = lower value
Excerpt: RAS pathway inhibitors in Combinations in Complex Spheroids
A high-throughput screen of multi-cell type tumor spheroids was designed to identify active combinations of RAS pathway inhibitors and targeted small molecules. Complex spheroids include a stromal component modeled by human endothelial cells (HUVEC) and fibroblasts modeled by human mesenchymal stem cells (MSCs). The concentration ranges selected for each drug and investigational agent were based upon clinically achievable concentrations if the clinical Cmax of the agent was known.
Compounds. The drugs and investigational agents: abemaciclib (NSC768073), cobimetinib (NSC768068), divarasib (GDC6063, NSC841802), docetaxel (NSC628503), GDC-1971 (RLY-1971, NSC841576), gemcitabine (NSC613327), inavolisib (NSC800729), ipatasertib (NSC767898), KB-0742 (NSC834161), MRTX-1133 (NSC836407), osimertinib (NSC779217), RMC-4630 (NSC839698), RMC-6236 (NSC851965), RMC-6291 (NSC852671), Ro-3306 (NSC812927), sapanisertib (NSC764658), SN-38 (NSC673596), staurosporine (NSC755774), SY5609 (NSC837396), and tovorafenib (DAY101, NSC766906), were obtained from the National Cancer Institute (NCI) Developmental Therapeutics Program Chemical Repository. The FDA-approved anticancer drug set is available from the NCI Developmental Therapeutics Program. […] The stock solutions were prepared in dimethyl sulfoxide (DMSO, Sigma-Aldrich, St. Louis, MO, cat. D2650) at 800-fold the tested concentration and stored at -70 degrees C prior to their use. All drugs and investigational agents were tested over a range starting from a high concentration at or near the clinical Cmax and decreasing in half-log increments. If the clinical Cmax for an agent had not been determined, the highest concentration tested was 10 microM.
Cell Culture. All cells were maintained in an incubator at 37 degrees C and 5% CO2 with 95% humidity. The PDC lines were cultured according to standard operating procedures established by the NCI PDMR. All PDCs were thawed and cultured in Matrigel-coated flasks prepared with a working solution of 1X Ham's F-12 nutrient mix, without supplementation (Invitrogen, Waltham, MA, cat. 11765054), 100 U/mL penicillin-streptomycin (Invitrogen, cat. 15140122), and 2.5% Matrigel (Corning Inc., Corning, NY, cat. 354248) for the first three passages. The 362531-283-R-J2-PDC and 782815-120-R-J1-PDC lines were cultured in 6C/Colon 1B media, which includes advanced DMEM/F-12 (Thermo Fisher Scientific, cat. 12634028), 10 mM HEPES (Thermo Fisher Scientific, cat. 15630080), 1X GlutaMAX supplement (Thermo Fisher Scientific, cat. 35050061), 0.1 mg/mL primocin (InvivoGen, San Diego, CA, cat. ant-pm-2), 10% defined fetal bovine serum, heat inactivated (HyClone Laboratories Inc., Logan, UT, cat. SH30070.03HI), 50% L-WRN conditioned media (ATCC, cat. CRL-3276), 1.25 mM N-Acetyl-L-cysteine (Sigma-Aldrich, cat. A9165), 10 mM nicotinamide (Sigma-Aldrich, cat. N0636), 1X B-27 supplement (Thermo Fisher Scientific, cat. 17504044), 1X N-2 supplement (Thermo Fisher Scientific, cat. 17502048), 50 ng/mL human EGF (Thermo Fisher Scientific, cat. PHG0311), and 10 microM Y-27632 dihydrochloride (Tocris Bioscience, cat. 1254). The K12877-001-R-J1-PDC line was cultured in 6I media, which includes all 6C/Colon 1B media plus 10 ng/mL human FGF-10 (PeproTech, cat. 100-26), 1 ng/mL human FGF-2 (PeproTech, cat. 100-18B), 1 µM prostaglandin E2 (Tocris Bioscience, cat. 2296), […] hydrocortisone (Sigma-Aldrich, cat. H4001), and […] bovine insulin (Sigma-Aldrich, cat. I6634). The K86415-001-R-J1-PDC line was cultured in 6D media, which includes all 6C/Colon 1B media components minus the L-WRN conditioned media. The 485176-168-R4-J1-PDC was cultured in PANC media, which includes all 6C/Colon 1B media plus 100 ng/mL human FGF-10 (PeproTech, cat. 100-26), 500 nM SB-431542 (Selleckchem, cat. S1067), and 10 nM gastrin (Tocris Bioscience, cat. 3006). […]
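Note: spheroids exposed to compound for seven days before viability readout.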

`CC(C)n1nc(-c2ccc3oc(N)nc3c2)c2c(N)ncnc21` + C#Cc1c(F)ccc2cc(O)cc(-c3ncc4c(N5CC6CCC(C5)N6)nc(OCC56CCCN5CC(F)C6)nc4c3F)c12 was tested, and the IC50 (second compound 0.0316 µM) was 5.82 nM, the IC50 (second compound 0.1 µM) was 3.71 nM and the IC50 (second compound 0.316 µM) was 5.3 nM. It also gave an IC50 (second compound 1 µM) of 6.59 nM, an IC50 (second compound 3.16 µM) of 3.7 nM and an IC50 (second compound 10 µM) of 1.58 nM. For the same compound, the viability, T/C (second compound 0.0316 µM, first compound 0.000316 µM) was 98.7%, the viability, T/C (second compound 0.0316 µM, first compound 0.001 µM) was 132% and the viability, T/C (second compound 0.0316 µM, first compound 0.00316 µM) was 90.5%. For the same compound, the viability, T/C (second compound 0.0316 µM, first compound 0.01 µM) was 15.3%, the viability, T/C (second compound 0.0316 µM, first compound 0.0316 µM) was 10.9% and the viability, T/C (second compound 0.0316 µM, first compound 0.1 µM) was 10.4%. For the same compound, the viability, T/C (second compound 0.1 µM, first compound 0.000316 µM) was 67.8%, the viability, T/C (second compound 0.1 µM, first compound 0.001 µM) was 123% and the viability, T/C (second compound 0.1 µM, first compound 0.00316 µM) was 56%. For the same compound, the viability, T/C (second compound 0.1 µM, first compound 0.01 µM) was 19.4%, the viability, T/C (second compound 0.1 µM, first compound 0.0316 µM) was 10.4% and the viability, T/C (second compound 0.1 µM, first compound 0.1 µM) was 9%. It also gave a viability, T/C (second compound 0.316 µM, first compound 0.000316 µM) of 87.8%, a viability, T/C (second compound 0.316 µM, first compound 0.001 µM) of 114% and a viability, T/C (second compound 0.316 µM, first compound 0.00316 µM) of 73.9%. The viability, T/C (second compound 0.316 µM, first compound 0.01 µM) was 20.5%, the viability, T/C (second compound 0.316 µM, first compound 0.0316 µM) was 8.95% and the viability, T/C (second compound 0.316 µM, first compound 0.1 µM) was 8.66%. It also gave a viability, T/C (second compound 1 µM, first compound 0.000316 µM) of 74.8%, a viability, T/C (second compound 1 µM, first compound 0.001 µM) of 111% and a viability, T/C (second compound 1 µM, first compound 0.00316 µM) of 85.9%. For the same compound, the viability, T/C (second compound 1 µM, first compound 0.01 µM) was 29.2%, the viability, T/C (second compound 1 µM, first compound 0.0316 µM) was 8.08% and the viability, T/C (second compound 1 µM, first compound 0.1 µM) was 9.16%. The viability, T/C (second compound 3.16 µM, first compound 0.000316 µM) was 109%, the viability, T/C (second compound 3.16 µM, first compound 0.001 µM) was 104% and the viability, T/C (second compound 3.16 µM, first compound 0.00316 µM) was 48.4%. It also gave a viability, T/C (second compound 3.16 µM, first compound 0.01 µM) of 30.2%, a viability, T/C (second compound 3.16 µM, first compound 0.0316 µM) of 9.48% and a viability, T/C (second compound 3.16 µM, first compound 0.1 µM) of 8.95%. The viability, T/C (second compound 10 µM, first compound 0.000316 µM) was 56.1%, the viability, T/C (second compound 10 µM, first compound 0.001 µM) was 72% and the viability, T/C (second compound 10 µM, first compound 0.00316 µM) was 28.5%. The viability, T/C (second compound 10 µM, first compound 0.01 µM) was 10.7%, the viability, T/C (second compound 10 µM, first compound 0.0316 µM) was 6.47% and the viability, T/C (second compound 10 µM, first compound 0.1 µM) was 4.1%.
